Experimental data: paper PMC9481151, “Discovery of new symmetrical and asymmetrical nitrile-containing 1,4-dihydropyridine derivatives as dual kinases and P-glycoprotein inhibitors: synthesis, in vitro assays, and in silico studies” (Journal of Enzyme Inhibition and Medicinal Chemistry, 2022)

Assays:
CCRF-CEM = assay: NCI single dose (10 µM) SRB screen; format: cell-based, human; conditions: leukaemia, 48 h
K-562 = assay: NCI single dose (10 µM) SRB screen; format: cell-based, human; conditions: leukaemia, 48 h
MOLT-4 = assay: NCI single dose (10 µM) SRB screen; format: cell-based, human; conditions: leukaemia, 48 h
RPMI-8226 = assay: NCI single dose (10 µM) SRB screen; format: cell-based, human; conditions: leukaemia, 48 h
SR = assay: NCI single dose (10 µM) SRB screen; format: cell-based, human; conditions: leukaemia, 48 h
EKVX = assay: NCI single dose (10 µM) SRB screen; format: cell-based, human; conditions: non-small cell lung cancer, 48 h
HOP-62 = assay: NCI single dose (10 µM) SRB screen; format: cell-based, human; conditions: non-small cell lung cancer, 48 h
HOP-92 = assay: NCI single dose (10 µM) SRB screen; format: cell-based, human; conditions: non-small cell lung cancer, 48 h
NCI-H226 = assay: NCI single dose (10 µM) SRB screen; format: cell-based, human; conditions: non-small cell lung cancer, 48 h
NCI-H23 = assay: NCI single dose (10 µM) SRB screen; format: cell-based, human; conditions: non-small cell lung cancer, 48 h
NCI-H460 = assay: NCI single dose (10 µM) SRB screen; format: cell-based, human; conditions: non-small cell lung cancer, 48 h
NCI-H522 = assay: NCI single dose (10 µM) SRB screen; format: cell-based, human; conditions: non-small cell lung cancer, 48 h
COLO 205 = assay: NCI single dose (10 µM) SRB screen; format: cell-based, human; conditions: colon cancer, 48 h
HCC-2998 = assay: NCI single dose (10 µM) SRB screen; format: cell-based, human; conditions: colon cancer, 48 h
HCT-116 = assay: NCI single dose (10 µM) SRB screen; format: cell-based, human; conditions: colon cancer, 48 h
HCT-15 = assay: NCI single dose (10 µM) SRB screen; format: cell-based, human; conditions: colon cancer, 48 h
HT29 = assay: NCI single dose (10 µM) SRB screen; format: cell-based, human; conditions: colon cancer, 48 h
KM12 = assay: NCI single dose (10 µM) SRB screen; format: cell-based, human; conditions: colon cancer, 48 h
SW-620 = assay: NCI single dose (10 µM) SRB screen; format: cell-based, human; conditions: colon cancer, 48 h
SF-268 = assay: NCI single dose (10 µM) SRB screen; format: cell-based, human; conditions: CNS cancer, 48 h
SF-295 = assay: NCI single dose (10 µM) SRB screen; format: cell-based, human; conditions: CNS cancer, 48 h
SNB-19 = assay: NCI single dose (10 µM) SRB screen; format: cell-based, human; conditions: CNS cancer, 48 h
SNB-75 = assay: NCI single dose (10 µM) SRB screen; format: cell-based, human; conditions: CNS cancer, 48 h
U251 = assay: NCI single dose (10 µM) SRB screen; format: cell-based, human; conditions: CNS cancer, 48 h
LOX IMVI = assay: NCI single dose (10 µM) SRB screen; format: cell-based, human; conditions: melanoma, 48 h
MALME-3M = assay: NCI single dose (10 µM) SRB screen; format: cell-based, human; conditions: melanoma, 48 h
M14 = assay: NCI single dose (10 µM) SRB screen; format: cell-based, human; conditions: melanoma, 48 h
MDA-MB-435 = assay: NCI single dose (10 µM) SRB screen; format: cell-based, human; conditions: melanoma, 48 h
SK-MEL-2 = assay: NCI single dose (10 µM) SRB screen; format: cell-based, human; conditions: melanoma, 48 h
SK-MEL-28 = assay: NCI single dose (10 µM) SRB screen; format: cell-based, human; conditions: melanoma, 48 h
SK-MEL-5 = assay: NCI single dose (10 µM) SRB screen; format: cell-based, human; conditions: melanoma, 48 h
IGROV1 = assay: NCI single dose (10 µM) SRB screen; format: cell-based, human; conditions: ovarian cancer, 48 h
OVCAR-3 = assay: NCI single dose (10 µM) SRB screen; format: cell-based, human; conditions: ovarian cancer, 48 h
OVCAR-5 = assay: NCI single dose (10 µM) SRB screen; format: cell-based, human; conditions: ovarian cancer, 48 h
NCI/ADR-RES = assay: NCI single dose (10 µM) SRB screen; format: cell-based, human; conditions: ovarian cancer, 48 h
SK-OV-3 = assay: NCI single dose (10 µM) SRB screen; format: cell-based, human; conditions: ovarian cancer, 48 h
786-0 = assay: NCI single dose (10 µM) SRB screen; format: cell-based, human; conditions: renal cancer, 48 h
SN12C = assay: NCI single dose (10 µM) SRB screen; format: cell-based, human; conditions: renal cancer, 48 h
TK-10 = assay: NCI single dose (10 µM) SRB screen; format: cell-based, human; conditions: renal cancer, 48 h
PC-3 = assay: NCI single dose (10 µM) SRB screen; format: cell-based, human; conditions: prostate cancer, 48 h
DU-145 = assay: NCI single dose (10 µM) SRB screen; format: cell-based, human; conditions: prostate cancer, 48 h
MDA-MB-231 = assay: NCI single dose (10 µM) SRB screen; format: cell-based, human; conditions: breast cancer, 48 h
HS578T = assay: NCI single dose (10 µM) SRB screen; format: cell-based, human; conditions: breast cancer, 48 h
T-47D = assay: NCI single dose (10 µM) SRB screen; format: cell-based, human; conditions: breast cancer, 48 h
MDA-MB-468 = assay: NCI single dose (10 µM) SRB screen; format: cell-based, human; conditions: breast cancer, 48 h
NCI 60 cancer cell lines = assay: NCI single dose (10 µM) SRB screen, mean over panel; format: cell-based, human; conditions: mean over 60 cell lines, 48 h
Staphylococcus aureus = assay: Agar well diffusion method
Bacillus subtilis = assay: Agar well diffusion method
Escherichia coli = assay: Agar well diffusion method
Pseudomonas aeruginosa = assay: Agar well diffusion method
Candida albicans = assay: Agar well diffusion method

COC(=O)C1=C(C)NC(C)=C(C(=O)OC)C1c1cccc(C#N)c1 [Compound 1a, Dimethyl 4-(3-cyanophenyl)-2,6-dimethyl-1,4-dihydropyridine-3,5-dicarboxylate]
– (Only GI% ≥ 10 are shown): GI% CCRF-CEM (CCRF-CEM) | GI% K-562 (K-562) | GI% MOLT-4 (MOLT-4) | GI% RPMI-8226 (RPMI-8226) | GI% SR (SR) | GI% EKVX (EKVX) | GI% HOP-62 (HOP-62) | GI% HOP-92 (HOP-92) | GI% NCI-H226 (NCI-H226) | GI% NCI-H23 (NCI-H23) | GI% NCI-H460 (NCI-H460) | GI% NCI-H522 (NCI-H522) | GI% COLO 205 (COLO 205) | GI% HCC-2998 (HCC-2998) | GI% HCT-116 (HCT-116) | GI% HCT-15 (HCT-15) | GI% HT29 (HT29) | GI% KM12 (KM12) | GI% SW-620 (SW-620) | GI% SF-268 (SF-268) | GI% SF-295 (SF-295) | GI% SNB-19 (SNB-19) | GI% U251 (U251) | GI% LOX IMVI (LOX IMVI) | GI% MALME-3M (MALME-3M) | GI% M14 (M14) | GI% MDA-MB-435 (MDA-MB-435) | GI% SK-MEL-2 (SK-MEL-2) | GI% SK-MEL-28 (SK-MEL-28) | GI% SK-MEL-5 (SK-MEL-5) | GI% IGROV1 (IGROV1) | GI% OVCAR-3 (OVCAR-3) | GI% OVCAR-5 (OVCAR-5) | GI% NCI/ADR-RES (NCI/ADR-RES) | GI% SK-OV-3 (SK-OV-3) | GI% 786-0 (786-0) | GI% SN12C (SN12C) | GI% TK-10 (TK-10) | GI% PC-3 (PC-3) | GI% DU-145 (DU-145) | GI% MDA-MB-231 (MDA-MB-231) | GI% HS578T (HS578T) | GI% T-47D (T-47D) | GI% MDA-MB-468 (MDA-MB-468)
9 mm: zone of inhibition at 1000 µg/mL (Bacillus subtilis; Bacillus subtilis, 24 h, read-out: Diameter of inhibition zone, B. subtilis)
54.2%: % activity index, S. aureus (Staphylococcus aureus; relative to ciprofloxacin)
39.1%: % activity index, B. subtilis (Bacillus subtilis; relative to ciprofloxacin)
−4%: Mean GI% (NCI 60 cancer cell lines)
30.8%: % activity index, E. coli (Escherichia coli; relative to ciprofloxacin)
24%: GI% SNB-75 (SNB-75)
48.1%: % activity index, C. albicans (Candida albicans; relative to clotrimazole)
8 mm: zone of inhibition at 1000 µg/mL (Escherichia coli; Escherichia coli, 24 h, read-out: Diameter of inhibition zone, E. coli)
13 mm: zone of inhibition at 1000 µg/mL (Staphylococcus aureus; Staphylococcus aureus, 24 h, read-out: Diameter of inhibition zone, S. aureus) | zone of inhibition at 1000 µg/mL (Candida albicans; Candida albicans, 24 h, read-out: Diameter of inhibition zone, C. albicans)
52.2%: % activity index, P. aeruginosa (Pseudomonas aeruginosa; relative to ciprofloxacin)
12 mm: zone of inhibition at 1000 µg/mL (Pseudomonas aeruginosa; Pseudomonas aeruginosa, 24 h, read-out: Diameter of inhibition zone, P. aeruginosa)
